Experimental data reported in patent US20190177440A1, “COMPOUND OR SALT THEREOF, ANTI-INFLAMMATORY AGENT, ANTI-CANCER AGENT AGAINST LUNG CANCER, METHOD OF PRODUCING COMPOUND OR SALTS THEREOF, METHOD OF TREATING INFLAMMATORY DISEASES AND METHOD OF TREATING LUNG CANCER” (TFK CO., LTD., priority 2016, published 2019).

Key:
NF-κB = assay: Nuclear NF-κB level in RAW264.7 cells stimulated with LPSp (Example 5); assay type: cell-based, mouse; details: final 1, 100 and 10,000 ng/mL, then LPSp 100 ng/mL, FIG. 5
Protocol: The culture medium was added to mouse macrophage cells (RAW264.7, ATCC) to prepare solutions at concentrations of 1.067×10^6 cells/mL. The solutions were seeded in 6 well plates in 3 mL portions, i.e., 3.2×10^6 cells/3 mL/well. After seeding, the test solution was incubated at 37° C. in a 5% CO2 for 2 hours, and 30 μL of the test solution was added to each well. After adding the test solution, the test solution was incubated at 37° C. in a 5% CO2 for 24 hours. The culture supernatant of each of the wells was then collected in a 15 mL tube. Then, 1 mL of the fresh culture solution was added to each of the wells, and after spreading over the entire well, the operation of collecting the culture solution into the 15 mL tube was repeated twice. Thereafter, the culture solution collected in the 15 mL tube was centrifuged at 1,000 rpm for 3 minutes, the supernatant was removed, and 3 mL of a new culture solution at 37° C. was added to suspend the culture solution, and centrifuged again under the same conditions. After centrifugation, the supernatant was removed, and 2 mL of the above-mentioned culture solution at 37° C. was added to the precipitate and suspended. Then, 2 mL of the suspension was added to each well to which 1 mL of a new culture medium had been added in advance. Thereafter, 30 μL of a new culture medium was added (hereinafter, this step is referred to as a “culture medium addition step”). After incubation at 37° C. in a 5% CO2 for 30 minutes, the culture supernatants of the wells were collected in 15-mL tubes, centrifuged at 1,000 rpm for 3 minutes, and the supernatants were removed by an aspirator. In addition, to the wells of the 6-well plate from which the culture supernatant was removed, 3 mL of cooled PBS (Phosphate buffered saline)/Phosphatase Inhibitors solution was added, the cells were removed by pipetting, and the cell suspension was added to the 15-mL tubes. The 15 mL tube was centrifuged at 1,000 rpm for 3 minutes, the supernatant was removed by an aspirator, and 0.5 mL of the cooled PB S/Phosphatase Inhibitors solution was added to the 15 mL tube and suspended to prepare a cell suspension. Nucleoproteins were extracted from the cell suspensions using Nuclear Extract kit (manufactured by Active Motif).
The amount of NF-κB in the nucleoprotein was confirmed by measuring the absorbance using the Trans AM NF KB p65 kit (manufactured by Active Motif).
In this example, an experiment was conducted in the same manner as in Example 4 except for the following two points, and the amount of NF-κB in the nucleoprotein was confirmed by measuring the absorbance. That is, in this example, three types of test solutions were used as the test solution, in which the concentration of the purified product was 100 ng/mL, 10,000 ng/mL, and 1,000,000 ng/mL. […]

[1] = test system: Lewis lung carcinoma: 3LL; assay: Tumor volume in mice bearing Lewis lung carcinoma 3LL (Example 9); assay type: in vivo, mouse; details: Example 9-1: ip 0.5 mg/10 mL/kg once, without CY; days 3, 6, 9; FIG. 9
Protocol: (1) Preparation of Cancer-Bearing Mice Suspensions of Lewis lung cancer cell lines (Lewis lung carcinoma: 3LL, obtained from JCRB cell banks) were subcutaneously administered to the ventral region of five male C57 BL/6J mice aged 6 weeks so that the cancer cell dose per animal was 2.5×10^5 cells per 200 μL. Two weeks after dosing, tumors were excised from one of the mice and washed on dishes with PBS (−). Next, the washed tumor was made into a finely divided tumor fragment of about 2 mm square, the tumor fragment was transferred to a 50 mL tube, 5 mL of collagenase solution was added, and the mixture was warmed at 37° C. for 10 minutes. Thereafter, the collagenase solution containing the tumor fragments was pipetted into finer tumor fragments, and the collagenase solution containing the tumor fragments was transferred to another 50 mL tube and cooled on ice. After cooling, an additional 5 mL of collagenase solution was added to the collagenase solution containing the tumor fragments, and the same procedure was repeated 5 times until no tumor fragments could be observed. Thereafter, the collagenase solution containing the tumor fragment was filtered through a cell strainer (mesh size: 70 μm, manufactured by BD Corporation), and the filtrate was centrifuged at 1200 rpm for 7 minutes. After centrifugation, the supernatant was removed, 20 ml of […] medium (serum-free) was added to the precipitate, and after suspension by inversion mixing, the precipitate was centrifuged at 1200 rpm for 7 minutes. After centrifugation, the supernatant was removed, and the precipitate was washed twice with PBS (−), and then 10 mL of PBS (−) was added and suspended to prepare a cancer cell suspension. The cancer cell suspension was subcutaneously administered to the ventral portion of the 12 mice so that the cancer cell dose per animal was 2.5×10^5 cells per 200 μL. Fourteen days after dosing, tumors were excised from 10 of the mice and cancer cell suspensions were prepared in the same manner as described above. The cancer cell suspensions were administered intracutaneously into the abdomen of the 108 mice so that the cancer cell dose per animal was 2.5×10^5 cells per 50 μL. After administration, mice were divided into six groups (n=6 in each group) as shown below at the time point when the tumor size of each mouse became about 5 mm in diameter (day 8 after administration). […]
The major and minor diameters of the tumors were measured using calipers on Days 3, 6 and 9 on the day of grouping as day 0, and the tumor volume was calculated based on these measurements. […]

Row | SMILES | amount of NF-κB in the nucleoprotein (absorbance) (NF-κB) | tumor volume versus saline group [1]
1 | CCCCCC/C=C/CCCCCC(=O)OC(CCCCCCCCCCC)CC(=O)NC1C(OCC2OC(OP(=O)(O)O)C(NC(=O)CC(=O)CCCCCCCCCCC)C(OC(=O)CC(O)CCCCCCC)C2O)OC(COC2(C(=O)O)CC(OC3(C(=O)O)CC(OC4OC(C(=O)O)C(OC5OC(CO)C(O)C(O)C5O)C(O)C4O)C(O)C(C(O)CO)O3)C(OC3OC(COP(=O)(O)O)C(OC4OC(CO)C(O)C(O)C4O)C(O)C3O)C(C(O)CO)O2)C(OP(=O)(O)O)C1OC(=O)CC(O)CCCCCCC (centres unmarked) [Formula (A1)] | Equivalent results were obtained | equivalent results
2 | CCCCCC/C=C/CCCCCC(=O)OC(CCCCCCCCCCC)CC(=O)NC1C(OCC2OC(OP(=O)(O)O)C(NC(=O)CC(=O)CCCCCCCCCCC)C(OC(=O)CC(O)CCCCCCC)C2O)OC(COC2(C(=O)O)CC(OC3(C(=O)O)CC(OC4OC(C(=O)O)C(OC5OC(CO)C(O)C(O)C5O)C(O)C4O)C(O)C(C(O)CO)O3)C(OC3OC(CO)C(O)C(O)C3O)C(C(O)CO)O2)C(OP(=O)(O)O)C1OC(=O)CC(O)CCCCCCC (centres unmarked) [Formula (A2)] | Equivalent results were obtained | equivalent results
3 | CCCCCC/C=C/CCCCCC(=O)OC(CCCCCCCCCCC)CC(=O)NC1C(OCC2OC(OP(=O)(O)O)C(NC(=O)CC(=O)CCCCCCCCCCC)C(OC(=O)CC(O)CCCCCCC)C2O)OC(COC2(C(=O)O)CC(OC3(C(=O)O)CC(O)C(OC4OC(C(=O)O)C(OC5OC(CO)C(O)C(O)C5O)C(O)C4O)C(C(O)CO)O3)C(OC3OC(COP(=O)(O)O)C(OC4OC(CO)C(O)C(O)C4O)C(O)C3O)C(C(O)CO)O2)C(OP(=O)(O)O)C1OC(=O)CC(O)CCCCCCC (centres unmarked) [Formula (B1)] | Equivalent results were obtained | equivalent results
4 | CCCCCC/C=C/CCCCCC(=O)OC(CCCCCCCCCCC)CC(=O)NC1C(OCC2OC(OP(=O)(O)O)C(NC(=O)CC(=O)CCCCCCCCCCC)C(OC(=O)CC(O)CCCCCCC)C2O)OC(COC2(C(=O)O)CC(OC3(C(=O)O)CC(O)C(OC4OC(C(=O)O)C(OC5OC(CO)C(O)C(O)C5O)C(O)C4O)C(C(O)CO)O3)C(OC3OC(CO)C(O)C(O)C3O)C(C(O)CO)O2)C(OP(=O)(O)O)C1OC(=O)CC(O)CCCCCCC (centres unmarked) [Formula (B2)] | Equivalent results were obtained | equivalent results
